In PMC5054527, “Mechanism of high affinity inhibition of the human urate transporter URAT1” (Scientific Reports, 2016):
Where a chain is given by its changes, count along the chain named. Where two headings read alike, the source gives them in different places.

Key:
Experiment in all cases: URAT1 uric acid transport activity assay
r-h TM1-C URAT1 chimera = molecular target: T1, r-h TM1-C URAT1 chimera (Rattus norvegicus, UniProt Q3ZAV1, L29M/N35S/P27S/T32C/V31L); type: cell-based, human/rat
T1 sequence (Q3ZAV1 1-553 P27S/L29M/V31L/T32C/N35S): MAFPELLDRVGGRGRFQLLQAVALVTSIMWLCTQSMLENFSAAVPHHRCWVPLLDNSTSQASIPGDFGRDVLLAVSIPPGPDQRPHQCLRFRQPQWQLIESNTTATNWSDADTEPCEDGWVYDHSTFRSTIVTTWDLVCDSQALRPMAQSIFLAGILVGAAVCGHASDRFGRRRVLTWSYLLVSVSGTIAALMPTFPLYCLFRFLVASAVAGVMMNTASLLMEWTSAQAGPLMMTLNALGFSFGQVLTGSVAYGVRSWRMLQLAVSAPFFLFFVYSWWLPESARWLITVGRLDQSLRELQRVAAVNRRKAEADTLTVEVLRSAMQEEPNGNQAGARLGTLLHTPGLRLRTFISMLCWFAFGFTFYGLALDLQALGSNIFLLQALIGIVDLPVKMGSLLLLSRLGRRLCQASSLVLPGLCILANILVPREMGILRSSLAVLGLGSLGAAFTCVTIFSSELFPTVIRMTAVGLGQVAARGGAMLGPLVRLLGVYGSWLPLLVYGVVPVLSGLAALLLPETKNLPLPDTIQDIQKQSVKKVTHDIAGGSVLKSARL
Text: (§1) hURAT1 (GenBank BC053348.1) and rURAT1 (NCBI NM_001034943.1) genes were purchased from Origene Technologies, Inc. and subcloned into pCMV6/neo using NotI, creating pCMV6/neo-hURAT1 and pCMV6/neo-rURAT1. Mutants were produced by polymerase chain reaction (PCR) or site-directed mutagenesis using the QuikChange Lightning Multi Site-Directed Mutagenesis Kit (Agilent Technologies). […] Detailed methods are provided in Supplementary Methods, and primers are listed in Supplementary Table 1. […] Residues in rURAT1 and hOAT1 that correspond to the residues in hURAT1 were identified from aligned protein sequences (Supplementary Fig. 1)[50].
(§2) DNA (10 μg) was mixed with 30 μl of DreamFect Gold (Boca Scientific) in 2 ml OptiMem (Life Technologies). After 20 minutes, 18 ml of media containing 2 × 10^7 cells in suspension was added and mixed, and 200 μl per well were plated onto white clear-bottomed poly-D-lysine coated 96-well plates (BD Biosciences). The cells were assayed the following day.
(§3) Compounds were serially diluted into assay buffer and added to the cells for 5 minutes prior to addition of radiolabelled uric acid substrate. URAT1-expressing cells were incubated with 100 μM ^14C-uric acid for 10 minutes. […] Each treatment was measured in triplicate.
(§4) Unlabelled uric acid was prepared at a 20 mM stock just prior to use in a solution containing 20 mM dibasic potassium phosphate and 20 mM potassium hydroxide.
(§5) Nonlinear regression analyses using GraphPad Prism software were used to calculate the potency of URAT1 inhibitors (IC50 values) from log (inhibitor) versus response - variable slope (four parameters) equations. Statistical significance was assessed using Student’s unpaired t-tests.

[1] = molecular target: T2, r-A21T rURAT1 point mutant (Rattus norvegicus, UniProt Q3ZAV1, A21T); type: cell-based
T2 construct: expressed in transfected cells; host or cells: HEK-293T
T2 sequence (Q3ZAV1 1-553 A21T): T1 sequence (Q3ZAV1 1-553 P27S/L29M/V31L/T32C/N35S) with A21T, S27P, M29L, L31V, C32T, S35N
Text: as §1, §2, §3, §4, §5

[2] = molecular target: T3, r-P27S rURAT1 point mutant (Rattus norvegicus, UniProt Q3ZAV1, P27S); type: cell-based
T3 sequence (Q3ZAV1 1-553 P27S): T1 sequence (Q3ZAV1 1-553 P27S/L29M/V31L/T32C/N35S) with M29L, L31V, C32T, S35N
Text: as §1, §2, §3, §4, §5

SMILES: O=C1C(CC[S+]([O-])c2ccccc2)C(=O)N(c2ccccc2)N1c1ccccc1 (stereo not shown) [sulfinpyrazone]
- IC50 (r-h TM1-C URAT1 chimera; r-h TM1-C, HEPES pH 7.3, 100 μM 14C-uric acid, read-out: IC50 (uric acid transport)): 25 ± 6.7 µM
- IC50 ([1]; r-A21T, HEPES pH 7.3, 100 μM 14C-uric acid, read-out: IC50 (uric acid transport)): 471 ± 81 µM
- fold higher affinity of r-P27S compared to rURAT1 ([2]; from IC50 values): 2.1 fold
- IC50 ([2]; r-P27S, HEPES pH 7.3, 100 μM 14C-uric acid, read-out: IC50 (uric acid transport)): 321 ± 77 µM

SMILES: O=C(O)CSc1nnc(Br)n1-c1ccc(C2CC2)c2ccccc12 [lesinurad, 2-((5-bromo-4-(4-cyclopropylnaphthalen-1-yl)-4H-1,2,4-triazol-3-yl)thio)acetic acid]
- IC50 (r-h TM1-C URAT1 chimera; r-h TM1-C, MES pH 5.5, 100 μM 14C-uric acid, read-out: IC50 (uric acid transport)): 17 ± 2 µM
- IC50 ([1]; r-A21T, MES pH 5.5, 100 μM 14C-uric acid, read-out: IC50 (uric acid transport)): 71 ± 5.9 µM
- IC50 ([2]; r-P27S, MES pH 5.5, 100 μM 14C-uric acid, read-out: IC50 (uric acid transport)): 77 ± 3.2 µM

SMILES: CCc1oc2ccccc2c1C(=O)c1cc(Br)c(O)c(Br)c1 [benzbromarone]
- IC50 (r-h TM1-C URAT1 chimera): 12 ± 0.78 µM
- IC50 [1]: 22 ± 3.6 µM
- IC50 [2]: 16 ± 1.7 µM
